According to patent US9963442B2, “Pyridones as herbicides” (E I DU PONT DE NEMOURS AND COMPANY, priority 2014, dated 2018):

Columns and labels:
Type in all cases: in vivo
[1] = system: Italian ryegrass (Lolium multiflorum); test: Test A postemergence application; settings: approx. 10 days
Source text: (§1) Seeds of plant species selected from barnyardgrass (Echinochloa crus-galli), kochia (Kochia scoparia), ragweed (common ragweed, Ambrosia elatior), Italian ryegrass (Lolium multiflorum), giant foxtail (Setaria faberii), and pigweed (Amaranthus retroflexus) were planted into a blend of loam soil and sand and treated preemergence with a directed soil spray using test chemicals formulated in a non-phytotoxic solvent mixture which included a surfactant. At the same time, plants selected from these weed species and also wheat (Triticum aestivum), corn (Zea mays), blackgrass (Alopecurus myosuroides), and galium (catchweed bedstraw, Galium aparine) were planted in pots containing the same blend of loam soil and sand and treated with postemergence applications of test chemicals formulated in the same manner. Plants ranged in height from 2 to 10 cm and were in the one- to two-leaf stage for the postemergence treatment. Treated plants and untreated controls were maintained in a greenhouse for approximately 10 days, after which time all treated plants were compared to untreated controls and visually evaluated for injury. Plant response ratings, summarized in Table A, are based on a 0 to 100 scale where 0 is no effect and 100 is complete control. A dash (-) response means no test result.

[2] = system: pigweed (Amaranthus retroflexus); test: Test A postemergence application; settings: approx. 10 days
Source text: as §1

[3] = system: barnyardgrass (Echinochloa crus-galli); test: Test A postemergence application; settings: approx. 10 days
Source text: as §1

corn (Zea mays) = test: Test A postemergence application; settings: approx. 10 days
Source text: as §1

[4] = system: galium (catchweed bedstraw, Galium aparine); test: Test A postemergence application; settings: approx. 10 days
Source text: as §1

[5] = system: ragweed (common ragweed, Ambrosia elatior); test: Test A postemergence application; settings: approx. 10 days
Source text: as §1

[6] = system: wheat (Triticum aestivum); test: Test A postemergence application; settings: approx. 10 days
Source text: as §1

[7] = system: giant foxtail (Setaria faberii); test: Test A postemergence application; settings: approx. 10 days
Source text: as §1

[8] = system: blackgrass (Alopecurus myosuroides); test: Test A postemergence application; settings: approx. 10 days
Source text: as §1

kochia (Kochia scoparia) [9] = test: Test A postemergence application; settings: approx. 10 days
Source text: as §1

[10] = system: Italian ryegrass (Lolium multiflorum); test: Test A preemergence, directed soil spray; settings: approx. 10 days
Source text: as §1

[11] = system: pigweed (Amaranthus retroflexus); test: Test A preemergence, directed soil spray; settings: approx. 10 days
Source text: as §1

[12] = system: barnyardgrass (Echinochloa crus-galli); test: Test A preemergence, directed soil spray; settings: approx. 10 days
Source text: as §1

[13] = system: ragweed (common ragweed, Ambrosia elatior); test: Test A preemergence, directed soil spray; settings: approx. 10 days
Source text: as §1

[14] = system: giant foxtail (Setaria faberii); test: Test A preemergence, directed soil spray; settings: approx. 10 days
Source text: as §1

kochia (Kochia scoparia) [15] = test: Test A preemergence, directed soil spray; settings: approx. 10 days
Source text: as §1

[16] = system: sedge, umbrella (small-flower umbrella sedge, Cyperus difformis); test: Test B flooded paddy test; design: key: 0 = no effect, 100 = complete control; settings: Flood, 250 g ai/ha applied to paddy water at 2-leaf stage; visually evaluated after 13 to 15 days; scale 0 (no effect) to 100 (complete control)
Description: (§2) Plant species in the flooded paddy test selected from rice (Oryza sativa), sedge, umbrella (small-flower umbrella sedge, Cyperus difformis), ducksalad (Heteranthera limosa), and barnyardgrass (Echinochloa crus-galli) were grown to the 2-leaf stage for testing. At time of treatment, test pots were flooded to 3 cm above the soil surface, treated by application of test compounds directly to the paddy water, and then maintained at that water depth for the duration of the test. Treated plants and controls were maintained in a greenhouse for 13 to 15 days, after which time all species were compared to controls and visually evaluated. Plant response ratings, summarized in Table B, are based on a scale of 0 to 100 where 0 is no effect and 100 is complete control. A dash (-) response means no test result.

[17] = system: barnyardgrass (Echinochloa crus-galli); test: Test B flooded paddy test; design: key: 0 = no effect, 100 = complete control; settings: Flood, 250 g ai/ha applied to paddy water at 2-leaf stage; visually evaluated after 13 to 15 days; scale 0 (no effect) to 100 (complete control)
Description: as §2

[18] = system: ducksalad (Heteranthera limosa); test: Test B flooded paddy test; design: key: 0 = no effect, 100 = complete control; settings: Flood, 250 g ai/ha applied to paddy water at 2-leaf stage; visually evaluated after 13 to 15 days; scale 0 (no effect) to 100 (complete control)
Description: as §2

rice (Oryza sativa) = test: Test B flooded paddy test; design: key: 0 = no effect, 100 = complete control; settings: Flood, 250 g ai/ha applied to paddy water at 2-leaf stage; visually evaluated after 13 to 15 days; scale 0 (no effect) to 100 (complete control)
Description: as §2

| Structure (SMILES) | Plant response rating (0 to 100 scale, 0 no effect, 100 complete control), Ryegrass, Italian ([1]; 31 g ai/ha) | Plant response rating (0 to 100 scale, 0 no effect, 100 complete control), Ryegrass, Italian ([1]; 125 g ai/ha) | Plant response rating (0 to 100 scale, 0 no effect, 100 complete control), Pigweed ([2]; 31 g ai/ha) | Plant response rating (0 to 100 scale, 0 no effect, 100 complete control), Pigweed ([2]; 125 g ai/ha) | Plant response rating (0 to 100 scale, 0 no effect, 100 complete control), Barnyardgrass ([3]; 31 g ai/ha) | Plant response rating (0 to 100 scale, 0 no effect, 100 complete control), Barnyardgrass ([3]; 125 g ai/ha) | Plant response rating (0 to 100 scale, 0 no effect, 100 complete control), Corn (corn (Zea mays); 31 g ai/ha) | Plant response rating (0 to 100 scale, 0 no effect, 100 complete control), Corn (corn (Zea mays); 125 g ai/ha) | Plant response rating (0 to 100 scale, 0 no effect, 100 complete control), Galium ([4]; 31 g ai/ha) | Plant response rating (0 to 100 scale, 0 no effect, 100 complete control), Galium ([4]; 125 g ai/ha) | Plant response rating (0 to 100 scale, 0 no effect, 100 complete control), Ragweed ([5]; 31 g ai/ha) | Plant response rating (0 to 100 scale, 0 no effect, 100 complete control), Ragweed ([5]; 125 g ai/ha) | Plant response rating (0 to 100 scale, 0 no effect, 100 complete control), Wheat ([6]; 31 g ai/ha) | Plant response rating (0 to 100 scale, 0 no effect, 100 complete control), Wheat ([6]; 125 g ai/ha) | Plant response rating (0 to 100 scale, 0 no effect, 100 complete control), Foxtail, Giant ([7]; 31 g ai/ha) | Plant response rating (0 to 100 scale, 0 no effect, 100 complete control), Foxtail, Giant ([7]; 125 g ai/ha) | Plant response rating (0 to 100 scale, 0 no effect, 100 complete control), Blackgrass ([8]; 31 g ai/ha) | Plant response rating (0 to 100 scale, 0 no effect, 100 complete control), Blackgrass ([8]; 125 g ai/ha) | Plant response rating (0 to 100 scale, 0 no effect, 100 complete control), Kochia (kochia (Kochia scoparia) [9]; 31 g ai/ha) | Plant response rating (0 to 100 scale, 0 no effect, 100 complete control), Kochia (kochia (Kochia scoparia) [9]; 125 g ai/ha) | further results |
| --- | --- | --- | --- | --- | --- | --- | --- | --- | --- | --- | --- | --- | --- | --- | --- | --- | --- | --- | --- | --- | --- |
| O=c1cccc(Oc2ncc(Cl)cn2)n1-c1ncc(C(F)(F)F)cn1 [Compound 5] | 0 | 30 | 70 | 90 | 0 | 20 | 0 | 10 | 50 | 90 | 30 | 80 | 0 | 0 | 10 | 80 | 30 | 50 | 40 | 60 | Plant response rating (0 to 100 scale, 0 no effect, 100 complete control), Ryegrass, Italian ([10]; 31 g ai/ha): 0; Plant response rating (0 to 100 scale, 0 no effect, 100 complete control), Ryegrass, Italian ([10]; 125 g ai/ha): 0; Plant response rating (0 to 100 scale, 0 no effect, 100 complete control), Pigweed ([11]; 31 g ai/ha): 90; Plant response rating (0 to 100 scale, 0 no effect, 100 complete control), Pigweed ([11]; 125 g ai/ha): 100; Plant response rating (0 to 100 scale, 0 no effect, 100 complete control), Barnyardgrass ([12]; 31 g ai/ha): 0; Plant response rating (0 to 100 scale, 0 no effect, 100 complete control), Barnyardgrass ([12]; 125 g ai/ha): 80; Plant response rating (0 to 100 scale, 0 no effect, 100 complete control), Ragweed ([13]; 31 g ai/ha): 0; Plant response rating (0 to 100 scale, 0 no effect, 100 complete control), Ragweed ([13]; 125 g ai/ha): 80; Plant response rating (0 to 100 scale, 0 no effect, 100 complete control), Foxtail, Giant ([14]; 31 g ai/ha): 70; Plant response rating (0 to 100 scale, 0 no effect, 100 complete control), Foxtail, Giant ([14]; 125 g ai/ha): 100; Plant response rating (0 to 100 scale, 0 no effect, 100 complete control), Kochia (kochia (Kochia scoparia) [15]; 31 g ai/ha): 0; Plant response rating (0 to 100 scale, 0 no effect, 100 complete control), Kochia (kochia (Kochia scoparia) [15]; 125 g ai/ha): 100; Plant response rating, Sedge, Umbrella [16]: 75; Plant response rating, Barnyardgrass [17]: 0; Plant response rating, Ducksalad [18]: 85; Plant response rating, Rice (rice (Oryza sativa)): 0 |
| O=c1cccc(Oc2ncc(Cl)cn2)n1-c1ccc(Cl)cn1 [Compound 8] | 10 | 20 | 80 | 90 | 10 | 30 | 10 | 20 | 60 | 70 | 30 | 70 | 0 | 0 | 20 | 70 | 10 | 20 | 70 | 90 | Plant response rating (0 to 100 scale, 0 no effect, 100 complete control), Ryegrass, Italian ([10]; 31 g ai/ha): 0; Plant response rating (0 to 100 scale, 0 no effect, 100 complete control), Ryegrass, Italian ([10]; 125 g ai/ha): 10; Plant response rating (0 to 100 scale, 0 no effect, 100 complete control), Pigweed ([11]; 31 g ai/ha): 70; Plant response rating (0 to 100 scale, 0 no effect, 100 complete control), Pigweed ([11]; 125 g ai/ha): 100; Plant response rating (0 to 100 scale, 0 no effect, 100 complete control), Barnyardgrass ([12]; 31 g ai/ha): 0; Plant response rating (0 to 100 scale, 0 no effect, 100 complete control), Barnyardgrass ([12]; 125 g ai/ha): 30; Plant response rating (0 to 100 scale, 0 no effect, 100 complete control), Ragweed ([13]; 31 g ai/ha): 0; Plant response rating (0 to 100 scale, 0 no effect, 100 complete control), Ragweed ([13]; 125 g ai/ha): 20; Plant response rating (0 to 100 scale, 0 no effect, 100 complete control), Foxtail, Giant ([14]; 31 g ai/ha): 40; Plant response rating (0 to 100 scale, 0 no effect, 100 complete control), Foxtail, Giant ([14]; 125 g ai/ha): 80; Plant response rating (0 to 100 scale, 0 no effect, 100 complete control), Kochia (kochia (Kochia scoparia) [15]; 31 g ai/ha): 30; Plant response rating (0 to 100 scale, 0 no effect, 100 complete control), Kochia (kochia (Kochia scoparia) [15]; 125 g ai/ha): 100; Plant response rating, Sedge, Umbrella [16]: 65; Plant response rating, Barnyardgrass [17]: 0; Plant response rating, Ducksalad [18]: 75; Plant response rating, Rice (rice (Oryza sativa)): 0 |
